What all share (type): in vitro ADME
Series [1] concerns the target T1, OAT1 (Homo sapiens, UniProt Q4U2R8).
T1 construct: host or cells: MDCK
T1 sequence (Q4U2R8 1-563): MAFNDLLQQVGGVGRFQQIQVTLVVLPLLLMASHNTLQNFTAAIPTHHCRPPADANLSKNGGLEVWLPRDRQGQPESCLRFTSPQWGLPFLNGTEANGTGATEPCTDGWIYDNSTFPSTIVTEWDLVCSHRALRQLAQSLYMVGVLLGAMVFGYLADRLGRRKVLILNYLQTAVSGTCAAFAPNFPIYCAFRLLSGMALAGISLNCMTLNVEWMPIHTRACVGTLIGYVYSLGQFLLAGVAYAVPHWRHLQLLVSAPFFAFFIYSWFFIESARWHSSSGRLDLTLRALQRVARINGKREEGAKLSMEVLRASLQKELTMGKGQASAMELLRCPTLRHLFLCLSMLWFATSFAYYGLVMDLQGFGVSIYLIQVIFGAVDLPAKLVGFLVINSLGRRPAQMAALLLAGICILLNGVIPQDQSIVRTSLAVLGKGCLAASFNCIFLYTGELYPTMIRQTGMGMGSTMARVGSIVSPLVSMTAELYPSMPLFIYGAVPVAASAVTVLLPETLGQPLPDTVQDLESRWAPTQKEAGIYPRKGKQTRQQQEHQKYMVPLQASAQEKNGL
The series can be described thus: Uptake transporter inhibition in transfected HEK 293 or MDCK cells. The note with it: read-out: as an Inhibitor, IC50. The protocol:
Cell monolayers were preincubated (37 °C) for 15 to 30 min in a transport medium containing the target concentration of EBO or a specific inhibitor without substrate. Following the removal of preincubation solutions, appropriate working solutions containing EBO at the target concentration plus the probe substrate were added to the wells in triplicate. Separate sets of triplicate wells were designated for probe substrate only and probe substrate plus the specific inhibitors, to determine the maximal uptake rate and maximal inhibition of uptake, respectively. After incubation at 37 °C for each transporter, the working solution was removed from each well and the experiment was stopped by washing three times with cold (4 °C) DPBS. Depending on the substrate label, cells were either lysed for the analysis of total radioactivity (liquid scintillation counter) or LC-MS/MS methods. For measuring relative fluorescence (FLUOstar Galaxy, Cary, NC, USA), cells were not lysed.

Series [2] relates to CYP1A2. The series can be described thus: CYP inhibition (direct and metabolism-dependent) in human hepatic microsomes. The note with it: for MDI IC50 Fold Change: metabolism-dependent inhibition; for IC50: pH 7.4, EBO 0.03–100 μM, M3 1–1000 µM, read-out: as an Inhibitor IC50. The protocol: (§1) The direct inhibitory potential of EBO on cytochrome P450 activities O-deethylase (CYP1A2), bupropion hydroxylase (CYP2B6), amodiaquine N-deethylase (CYP2C8), diclofenac 4′-hydroxylase (CYP2C9), S-mephenytoin 4′-hydroxylase (CYP2C19), bufuralol 1′-hydroxylase (CYP2D6), chlorzoxazone 6-hydroxylase (CYP2E1), testosterone 6β-hydroxylase (CYP3A), and midazolam 1′-hydroxylase (CYP3A) was assessed in vitro using human hepatic microsomes according to Covance Laboratory (Madison, WI, USA) SOP. A single substrate concentration was used, approximating the concentration of substrate that gives half the maximum reaction velocity (Km) for human hepatic microsomes for each cytochrome P450 activity. […] All sample and control incubations were performed in triplicate and were analyzed by LC-MS/MS. Incubation mixtures contained microsomal protein and substrate in a 0.1 M potassium phosphate buffer (pH 7.4) containing 1 mM EDTA (assay buffer). […] Incubations were terminated by the addition of 100 µL of an internal standard solution followed by vortex mixing. Protein was removed by centrifugation at 1500× g for 5 min at 4 °C, and supernatants were transferred to a separate plate and stored at 4 °C prior to LC-MS/MS analysis. The analyte for each activity assay was quantitated by comparison to a linear curve of an authentic standard prepared using human microsomal protein. […] Incubations were performed at substrate concentrations approximating the average Km values. […] For determination of control activities, NADPH was added after the addition of each substrate. Samples were then processed as previously described. […] Two sets of duplicate incubations were prepared (cofactor preincubation [50 µL] and control preincubation [50 µL]) with each concentration of M3. All incubations contained a final microsomal protein concentration of 0.1 mg/mL. In this study, M3 and microsomes were preincubated with cofactor for 20 min prior to initiation of reaction by addition of probe substrate. The corresponding control incubations were designed to provide a preincubation without cofactor while incorporating the 20 min preincubation of M3 with microsomes to ensure consistent equilibration of M3 in both control and cofactor preincubations. The control preincubations were therefore performed for 20 min with M3, microsomes, and probe substrate, and the reaction was initiated by the addition of a cofactor solution. […] Incubations without cofactor (at the highest concentration of M3) were performed to determine any cofactor-independent substrate metabolism formation. Probe substrate concentrations were determined by LC/MS/MS methods.

Series [3] deals with T2, CYP2C8 (Homo sapiens, UniProt P10632).
T2 construct: tissue CellzDirect; XenoTech LLC; host or cells: pooled human liver microsomes
T2 sequence (P10632 1-490): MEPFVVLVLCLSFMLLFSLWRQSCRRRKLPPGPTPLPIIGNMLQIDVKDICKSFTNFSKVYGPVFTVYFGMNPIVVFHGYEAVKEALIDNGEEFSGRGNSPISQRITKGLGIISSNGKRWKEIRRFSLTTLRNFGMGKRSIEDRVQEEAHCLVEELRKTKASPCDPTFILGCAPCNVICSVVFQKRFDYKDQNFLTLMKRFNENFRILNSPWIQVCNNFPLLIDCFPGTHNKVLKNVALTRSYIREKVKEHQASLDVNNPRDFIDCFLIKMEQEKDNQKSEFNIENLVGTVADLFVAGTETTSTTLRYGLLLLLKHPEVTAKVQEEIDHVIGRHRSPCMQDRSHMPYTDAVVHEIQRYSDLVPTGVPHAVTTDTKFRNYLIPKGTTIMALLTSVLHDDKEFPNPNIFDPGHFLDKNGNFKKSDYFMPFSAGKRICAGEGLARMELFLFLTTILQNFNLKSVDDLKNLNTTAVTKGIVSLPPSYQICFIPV
Described as above. The note with it: for MDI IC50 Fold Change: metabolism-dependent inhibition; for IC50: read-out: as an Inhibitor IC50. The protocol:
as §1

Series [4] addresses T3, CYP2C9 (Homo sapiens, UniProt P11712).
T3 construct: tissue CellzDirect; XenoTech LLC; host or cells: pooled human liver microsomes
The description is as above. The conditions noted are these: for MDI IC50 Fold Change: metabolism-dependent inhibition; for IC50: read-out: as an Inhibitor IC50. The protocol: as §1

In series [5] the target is T4, CYP2D6 (Homo sapiens, UniProt P10635).
T4 construct: Characterized, pooled, human hepatic microsomes from 15 individuals; tissue CellzDirect (Durham, NC, USA) or XenoTech LLC (Lenexa, KS, USA); host or cells: pooled human liver microsomes (15 donors)
T4 sequence (P10635 whole entry): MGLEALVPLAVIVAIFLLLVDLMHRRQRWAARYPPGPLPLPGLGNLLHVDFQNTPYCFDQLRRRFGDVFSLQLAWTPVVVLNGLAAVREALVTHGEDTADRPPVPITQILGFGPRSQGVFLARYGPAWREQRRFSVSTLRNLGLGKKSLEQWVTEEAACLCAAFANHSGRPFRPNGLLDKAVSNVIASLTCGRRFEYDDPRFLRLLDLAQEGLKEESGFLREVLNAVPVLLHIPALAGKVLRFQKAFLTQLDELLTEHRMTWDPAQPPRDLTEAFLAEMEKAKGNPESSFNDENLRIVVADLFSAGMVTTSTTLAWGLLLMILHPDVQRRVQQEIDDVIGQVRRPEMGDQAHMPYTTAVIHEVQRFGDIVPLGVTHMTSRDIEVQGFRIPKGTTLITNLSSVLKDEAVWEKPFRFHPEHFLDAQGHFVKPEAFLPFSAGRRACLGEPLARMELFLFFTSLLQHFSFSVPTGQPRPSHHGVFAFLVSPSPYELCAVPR
Described as above. The note with it: for MDI IC50 Fold Change: metabolism-dependent inhibition; for IC50: read-out: as an Inhibitor IC50. The protocol: as §1

Series [6] relates to CYP3A4. The series is described as above. The note with it: for MDI IC50 Fold Change / IC50: CYP3A4 (Testosterone); for MDI IC50 Fold Change: metabolism-dependent inhibition; for IC50: human, read-out: as an Inhibitor IC50. The protocol:
as §1

Where two headings read alike, the source gives them in different places.

The term IC50 denotes the concentration at which inhibition is half-maximal. The inhibition is how much of the control response was suppressed.

T3 sequence (P11712 whole entry): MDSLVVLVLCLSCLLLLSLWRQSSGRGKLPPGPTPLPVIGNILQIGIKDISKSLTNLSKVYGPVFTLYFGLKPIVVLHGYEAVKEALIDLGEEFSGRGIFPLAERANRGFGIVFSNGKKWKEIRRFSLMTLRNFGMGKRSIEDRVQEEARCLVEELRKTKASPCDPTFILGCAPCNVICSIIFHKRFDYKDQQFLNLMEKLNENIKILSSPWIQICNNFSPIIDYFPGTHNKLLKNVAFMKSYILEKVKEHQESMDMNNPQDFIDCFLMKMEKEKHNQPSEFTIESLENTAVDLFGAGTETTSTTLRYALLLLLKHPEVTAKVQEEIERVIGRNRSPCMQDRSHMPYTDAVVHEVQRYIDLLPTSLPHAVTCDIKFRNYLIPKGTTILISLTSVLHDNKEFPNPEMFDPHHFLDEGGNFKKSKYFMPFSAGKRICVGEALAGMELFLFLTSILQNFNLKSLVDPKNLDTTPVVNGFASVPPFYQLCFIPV

Take `NC[C@H]1OB(O)c2c(OCCC(=O)O)cccc21` [M3]: the half-maximal inhibitory concentration (IC50) in series [1] is greater than 250 µM; in series [2] (human, microsomes, CYP1A2), greater than 1000 µM; in series [3] it was greater than 1000 µM; in series [4] it was greater than 1000 µM; in series [5], greater than 1000 µM; in series [6] (microsomes, pH 7.4), greater than 1000 µM. Also, the “Direct or time-dependent inhibitory activity (in words)” value in series [2] (CYP1A2), in series [3], in series [4], in series [5] and in series [6] (CYP3A4) was “No direct or time-dependent inhibitory activity” throughout. Further, the “MDI IC50 Fold Change” value in series [2] (CYP1A2), in series [3], in series [4], in series [5] and in series [6] was “No” each time.

As for `NC[C@H]1OB(O)c2c(OCCCO)cccc21` [EBO, Epetraborole], the IC50 is greater than 1000 µM in series [1]; greater than 100 µM in series [2] (human, human liver microsomes, CYP1A2); greater than 100 µM in series [3]; greater than 100 µM in series [4]; greater than 100 µM in series [5]; greater than 100 µM in series [6] (human hepatic (liver) microsomes, pH 7.4, probe testosterone (6β-hydroxylation)). Besides, the “MDI IC50 Fold Change” value in series [2] (CYP1A2), in series [3], in series [4], in series [5] and in series [6] was “No” each time. For the same compound, the inhibition at 100 µM in series [2] (human, human hepatic microsomes, pH 7.4, highest concentration tested (100 µM), read-out: Decrease of CYP1A2 activity (inhibition)) was roughly 30%. For the same compound, the “Percentage of CYP1A2 activity remaining” value was 72.4% in series [2] (preincubation with EBO in the absence of NADPH) and 81.7% in series [2] (preincubation with EBO in the presence of NADPH).
